Two compounds from BindingDB's records for doi:10.1021/acs.jmedchem.0c02069 (Indiana University, 2021) can be followed below.

This assay has as its target Glucagon receptor (Homo sapiens, UniProt P47871). In words: Displacement of 125I-glucagon from human GCGR expressed in HEK293 cells membranes incubated for 6 hrs by liquid scintillation counting method. (In general: In a radioligand displacement assay an active substance lowers the binding of a labelled ligand.)

Peptide text beside a SMILES is read from it.

Sequence of Glucagon receptor (P47871 whole entry): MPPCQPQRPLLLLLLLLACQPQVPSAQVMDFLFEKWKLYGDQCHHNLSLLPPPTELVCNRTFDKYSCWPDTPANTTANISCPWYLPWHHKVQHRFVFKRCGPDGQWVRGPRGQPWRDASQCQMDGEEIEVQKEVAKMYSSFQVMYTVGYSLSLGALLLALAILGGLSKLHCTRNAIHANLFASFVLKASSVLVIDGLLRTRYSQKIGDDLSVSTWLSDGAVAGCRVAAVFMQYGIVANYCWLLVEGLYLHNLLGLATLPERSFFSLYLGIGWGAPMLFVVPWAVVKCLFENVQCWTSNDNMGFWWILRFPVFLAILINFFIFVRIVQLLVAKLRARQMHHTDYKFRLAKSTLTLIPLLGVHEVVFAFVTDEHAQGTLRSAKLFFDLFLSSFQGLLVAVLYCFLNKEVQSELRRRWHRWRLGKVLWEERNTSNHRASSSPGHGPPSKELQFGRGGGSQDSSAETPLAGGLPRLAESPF

What is called IC50 is the point on the concentration scale where inhibition reaches its midpoint. Regarding `CSCC[C@H](NC(=O)[C@H](CC(C)C)NC(=O)[C@H](Cc1c[nH]c2ccccc12)NC(=O)[C@H](CCC(N)=O)NC(=O)[C@@H](NC(=O)[C@H](Cc1ccccc1)NC(=O)[C@H](CC(=O)O)NC(=O)[C@H](CCC(N)=O)NC(=O)[C@H](C)NC(=O)[C@H](CCCNC(=N)N)NC(=O)[C@H](CCCNC(=N)N)NC(=O)[C@H](CO)NC(=O)[C@H](CC(=O)O)NC(=O)[C@H](CC(C)C)NC(=O)[C@H](Cc1ccc(O)cc1)NC(=O)[C@H](CCCCN)NC(=O)[C@H](CO)NC(=O)[C@H](Cc1ccc(O)cc1)NC(=O)[C@H](CSCC(=O)O)NC(=O)[C@H](CO)NC(=O)[C@@H](NC(=O)[C@H](Cc1ccccc1)NC(=O)[C@@H](NC(=O)CNC(=O)[C@H](CCC(N)=O)NC(=O)[C@@H](N)CO)[C@@H](C)O)[C@@H](C)O)C(C)C)C(=O)N[C@@H](CC(N)=O)C(=O)N[C@H](C(N)=O)[C@@H](C)O`, the IC50 came out at 13 nM.

Compound `CSCC[C@H](NC(=O)[C@H](CC(C)C)NC(=O)[C@H](Cc1c[nH]c2ccccc12)NC(=O)[C@H](CCC(N)=O)NC(=O)[C@@H](NC(=O)[C@H](Cc1ccccc1)NC(=O)[C@H](CC(=O)O)NC(=O)[C@H](CCC(N)=O)NC(=O)[C@H](C)NC(=O)[C@H](CCCNC(=N)N)NC(=O)[C@H](CCCNC(=N)N)NC(=O)[C@H](CO)NC(=O)[C@H](CC(=O)O)NC(=O)[C@H](CC(C)C)NC(=O)[C@H](Cc1ccc(O)cc1)NC(=O)[C@H](CCCCN)NC(=O)[C@H](CO)NC(=O)[C@H](Cc1ccc(O)cc1)NC(=O)[C@H](CCC(=O)O)NC(=O)[C@H](CO)NC(=O)[C@@H](NC(=O)[C@@H](O)Cc1ccccc1)[C@@H](C)O)C(C)C)C(=O)N[C@@H](CC(N)=O)C(=O)N[C@H](C(N)=O)[C@@H](C)O` (HELM PEPTIDE1{[O=C([C@@H](O)Cc1ccccc1)[*:2]].T.S.E.Y.S.K.Y.L.D.S.R.R.A.Q.D.F.V.Q.W.L.M.N.T.[am]}$$$$V2.0) registered an IC50 of 12 nM.
